Consider four molecules from patent publication US20260217656A1, “Compounds Affecting KRAS” (UNIVERSITAT DE BARCELONA, priority 2022, published 2026).

A word on the IC50: it is the point on the concentration scale where inhibition reaches its midpoint. A low value points to higher potency.

“Also recorded” adds a separate entry of the source.

Test [1] has as its system Ras effectors ERK and AKT in DLD-1 cells. As to the kind of experiment: Western blot of downstream RAS signaling (P-ERK, P-AKT, P-MEK) in serum-starved DLD-1 cells. It is filed as cell-based, human. The note with it: 100 μM; for activation of AKT and ERK / relative capacity to activate Ras effectors ERK and AKT among the compounds: DLD-1 serum-starved cells, 3 hours. The text has this:
DLD-1 (KRASWT/G13D) (clone V15, #HD PAR-086) colorectal adenocarcinoma cell line and DLD-1 knockout of mutant KRAS allele, DLD-1 KO (KRASWT/−) (clone DWT7, #HD105-002), were obtained from Horizon Discovery Ltd. (Cambridge, UK). hTERT-RPE (KRASWT/WT) immortalized retinal pigment epithelial human cell line was obtained from the […] (ATCC). DLD-1 KO cells stably expressing HA-KRAS G12V were previously generated in our laboratory (Cabot et al., 2021). All cells were grown in DMEM-HAM s F12 (1:1) supplemented with 10% foetal bovine serum (Biological Industries, Israel), penicillin, streptomycin, and nonessential amino acids. Cells were tested once per month for mycoplasma contamination.
Cells were seeded in a media containing 10% FBS for 24 hours and then they were serum starved (0.1% FBS) for the next 24 hours. Afterwards, they were incubated with the different compounds during the times specified in each figure. When indicated, also in order to activate downstream KRAS cell signalling, treatment for 10 minutes with EGF (50 ng/mL) (Sigma-Aldrich) was performed.
Proteins were resolved by SDS-PAGE, transferred onto PVDF membranes (Immobilon-P, Millipore) and Western blot was performed as previously described (Cabot et al, Oncogene 2021). The following primary antibodies were used: anti-c-RAF (BD Transduction 610151, 1:500); anti-phospho-c-RAF S338 (Cell Signaling 9427, 1:500); anti-AKT (Cell Signaling 9272, 1:1000); anti-phospho-AKT T308 (Cell Signaling 4056, 1:1000); anti-phospho-MEK1/2 S221 (Cell Signalling […]); anti-p44/42 MAPK (ERK1/2) (Cell Signaling 9102, 1:2000); anti-phospho-p44/42 MAPK(ERK1/2) T202/Y204 (Cell Signaling 4370, 1:2000); anti-HA (Sigma-Aldrich H6908, 1:1000); anti-cleaved-caspase-3 (Asp175) (Cell Signaling 9661, 1:1000); HRP-coupled secondary antibodies used: goat anti-rabbit (BioRad 170-6515, 1:3000) or goat anti-mouse (BioRad 170 6516, 1:3000).
For analysis of RAS signalling, cells were lysed in a buffer containing 67 mM Tris-HCl pH 6.8 and 2% SDS and then the samples were heated at 97° C. for 15 minutes. Protein concentration of the lysates was assessed using the Lowry method. An aliquot of […] of protein per sample was loaded onto the gels.
We first analyzed the effect of P14 on the activation of downstream RAS signaling pathways (RAF/MEK/ERK and PI3K/AKT) in DLD-1 cells (CRC cells carrying one oncogenic KRAS allele). To this end, DLD-1 serum-starved cells (0.1% FCS) were treated with P14 (100 μM) at different times, and activation of AKT and ERK was evaluated by Western blot. […] As a 3-hour treatment was associated with major effects, we chose this duration for the subsequent experiments with the other compounds. Next, DLD-1 serum-starved cells were treated with P14A-P14C at 100 μM for 3 hours and activation of AKT and ERK was assessed as above. […] The kinetics of RAS downstream signaling was analyzed in P14B-treated cells compared to 10% FBS serum.
Background: In western blotting, separated proteins are transferred to a membrane and probed.

Test [2] relates to Panc-1 cells. As to the kind of experiment: Cell Titre Glo viability assay, Panc-1. The class given is cell-based. The note with it: Panc-1 cells (KRAS mutant G12D), after five days of treatment. On the procedure: In the next study, compounds were tested against cancer cells: pancreatic cancer cells (Panc-1), ovarian cancer cells (SW626) and uterine sarcoma cells (Mes-sa). The data generated using Cell Titre Glo® assays under standard conditions where the cells are grown in 384 well plates, then placed under continuous pressure of treatment for the relevant time period before being halted and assayed. The data collected is then plotted for analysis.
FIG. […]

With `Cc1n[nH]c(O)c1C(c1ccccc1OCc1ccc(Cl)cc1)c1c(C)n[nH]c1O` [Example P14], the “P-ERK and P-AKT levels, time course” value in test [1] (DLD-1 serum-starved cells (0.1% FCS), 3 and 6 hours) was “significantly increased P-ERK and P-AKT”. Further, in test [1], the “activation of AKT and ERK” value was “activated AKT and ERK kinases; also recorded: increase AKT and/or ERK signalling”; the “relative capacity to activate Ras effectors ERK and AKT among the compounds” value is recorded as “most efficient”.

Turning to `Cc1n[nH]c(O)c1C(c1ccc(F)cc1)c1c(C)n[nH]c1O` [Example P14A], in test [1], the “activation of AKT and ERK” value is given as “increase AKT and/or ERK signalling”; the “relative capacity to activate Ras effectors ERK and AKT among the compounds” value is “highest activation of both Ras effectors”.

Turning to `Cc1n[nH]c(O)c1C(c1ccc2c(c1)OCO2)c1c(C)n[nH]c1O` [Example P14C], the “activation of AKT and ERK” value in test [1] was “activated AKT and ERK kinases; also recorded: increase AKT and/or ERK signalling”.

With `COc1ccc(C(c2c(C)n[nH]c2O)c2c(C)n[nH]c2O)cc1OCCc1ccc(Cl)cc1` [P14(J)SD], in test [2], the IC50 was below 20 µM and the “response among the molecules tested” value was “best response”.
